Test results taken from US5733913A, “6-Aryl pyrido[2,3-d] pyrimidines and naphthyridines for inhibiting protein tyrosine kinase mediated cellular proliferation” (priority 1995, dated 1998).
Like-named read-outs stand apart in the source and are kept apart here.

How the values were obtained:
[1] = target: T1, mouse PDGF-β receptor tyrosine kinase (Mus musculus, UniProt P05622); experiment: PDGF receptor tyrosine kinase assay; type: biochemical; conditions: for IC50: read-out: Inhibition of Protein Tyrosine Kinases, PDGF, IC50
T1 construct: a fragment of DNA that codes for the intracellular tyrosine kinase domain; made in house; host or cells: Sf9 insect cells (baculovirus), cell lysate
T1 sequence (P05622 599-961 limits assumed): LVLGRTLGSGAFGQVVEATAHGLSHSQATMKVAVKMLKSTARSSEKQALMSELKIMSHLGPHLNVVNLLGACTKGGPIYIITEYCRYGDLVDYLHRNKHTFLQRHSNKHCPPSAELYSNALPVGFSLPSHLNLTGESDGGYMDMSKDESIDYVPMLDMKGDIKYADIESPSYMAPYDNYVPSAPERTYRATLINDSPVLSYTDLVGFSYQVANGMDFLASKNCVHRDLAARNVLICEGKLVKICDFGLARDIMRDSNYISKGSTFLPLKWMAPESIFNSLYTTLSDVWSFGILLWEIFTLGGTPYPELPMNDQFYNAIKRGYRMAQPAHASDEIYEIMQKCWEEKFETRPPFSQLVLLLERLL
How it was run: (§1)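 Intracellular kinase domains expressed in baculovirus-infected SF9 cells; crude lysate used as enzyme. Inhibitor preincubated 10 min at 25 °C with lysate in pH 7.0 Hepes buffer with 10 mM MnCl2 and poly(Glu-Tyr) 4:1, then γ-32P-ATP (50 μM ATP) added for 10 min at 25 °C. TCA-precipitated 32P on filters counted, no-enzyme background subtracted.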

[2] = target: T2, human FGF-1 (flg) receptor tyrosine kinase (Homo sapiens, UniProt P11362); experiment: FGF receptor tyrosine kinase assay; type: biochemical; conditions: read-out: Inhibition of Protein Tyrosine Kinases, FGF, IC50
T2 construct: a fragment of DNA that codes for the intracellular tyrosine kinase domain; made in house; host or cells: Sf9 insect cells (baculovirus), cell lysate
T2 sequence (P11362 478-767 limits assumed): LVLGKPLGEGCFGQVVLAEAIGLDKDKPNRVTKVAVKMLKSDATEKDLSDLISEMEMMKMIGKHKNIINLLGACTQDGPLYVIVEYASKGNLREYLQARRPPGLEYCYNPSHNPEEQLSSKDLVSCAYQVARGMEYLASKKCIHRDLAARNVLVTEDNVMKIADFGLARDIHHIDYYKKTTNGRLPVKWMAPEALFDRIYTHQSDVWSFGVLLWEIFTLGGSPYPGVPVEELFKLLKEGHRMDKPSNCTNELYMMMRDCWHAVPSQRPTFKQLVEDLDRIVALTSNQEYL
How it was run: as §1

[3] = target: T3, Human EGF receptor tyrosine kinase (Homo sapiens, UniProt P00533); experiment: EGF receptor tyrosine kinase assay; type: biochemical; conditions: for inhibition at 50 µM: read-out: Inhibition of Protein Tyrosine Kinases, EGF, % Inhibition
T3 construct: isolated from A431 epidermoid carcinoma cells; endogenous in cells; host or cells: A431 epidermoid carcinoma cells (Triton lysate, wheat germ agglutinin eluate)
T3 sequence (P00533 25-1210): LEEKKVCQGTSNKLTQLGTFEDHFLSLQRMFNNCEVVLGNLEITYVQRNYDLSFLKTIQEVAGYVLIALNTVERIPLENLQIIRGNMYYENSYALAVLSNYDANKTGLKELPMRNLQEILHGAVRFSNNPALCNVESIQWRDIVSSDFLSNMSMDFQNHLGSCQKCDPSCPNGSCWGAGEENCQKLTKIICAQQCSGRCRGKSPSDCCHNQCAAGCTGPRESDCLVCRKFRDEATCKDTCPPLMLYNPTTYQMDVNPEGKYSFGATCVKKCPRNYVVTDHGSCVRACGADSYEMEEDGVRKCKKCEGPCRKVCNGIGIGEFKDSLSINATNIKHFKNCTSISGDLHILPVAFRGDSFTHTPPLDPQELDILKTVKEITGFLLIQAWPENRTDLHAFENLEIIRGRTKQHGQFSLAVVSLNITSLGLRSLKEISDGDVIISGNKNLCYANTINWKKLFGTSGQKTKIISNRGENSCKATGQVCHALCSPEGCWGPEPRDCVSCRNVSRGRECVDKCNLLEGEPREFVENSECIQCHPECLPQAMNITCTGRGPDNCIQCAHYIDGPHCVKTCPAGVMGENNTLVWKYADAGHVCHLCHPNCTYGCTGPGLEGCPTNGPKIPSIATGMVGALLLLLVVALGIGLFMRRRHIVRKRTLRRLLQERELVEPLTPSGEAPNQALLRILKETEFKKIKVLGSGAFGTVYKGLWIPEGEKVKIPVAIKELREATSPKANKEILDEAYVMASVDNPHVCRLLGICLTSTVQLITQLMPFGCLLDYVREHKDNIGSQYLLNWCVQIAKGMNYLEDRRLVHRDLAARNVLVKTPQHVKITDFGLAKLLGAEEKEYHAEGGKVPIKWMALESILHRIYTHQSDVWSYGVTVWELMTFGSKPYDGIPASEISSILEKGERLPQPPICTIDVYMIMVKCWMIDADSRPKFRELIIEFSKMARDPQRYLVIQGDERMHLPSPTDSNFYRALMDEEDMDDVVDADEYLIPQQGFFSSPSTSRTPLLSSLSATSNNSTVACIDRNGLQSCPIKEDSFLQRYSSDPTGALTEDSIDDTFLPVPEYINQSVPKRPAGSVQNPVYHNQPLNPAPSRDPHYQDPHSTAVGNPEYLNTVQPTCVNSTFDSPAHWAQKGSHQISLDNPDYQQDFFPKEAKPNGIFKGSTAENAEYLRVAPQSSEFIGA
Experimental: Purification of Epidermal Growth Factor Receptor Tyrosine Kinase
Human EGF receptor tyrosine kinase was isolated from A431 epidermoid carcinoma cells by the following methods. Cells were grown in roller bottles in 50% Delbuco's Modified Eagle and 50% HAM F-12 nutrient media (Gibco) containing 10% fetal calf serum. Approximately 10^9 cells were lysed in two volumes of buffer containing 20 mM 2-(4N-[2-hydroxyethyl]piperazin-1-yl)ethanesulfonic acid, pH 7.4, 5 mM ethylene glycol bis(2-aminoethyl ether)N,N,N',N'-tetraacetic acid, 1% Triton X-100, 10% glycerol, 0.1 mM sodium orthovanadate, 5 mM sodium fluoride, 4 mM pyrophosphate, 4 mM benzamide, 1 mM dithiothreitol, 80 μg/mL aprotinin, 40 μg/mL leupeptin, and 1 mM phenylmethylsulfonyl fluoride. After centrifugation at 25,000×g for 10 minutes, the supernatant was equilibrated for 2 hours at 4° C. with 10 mL of wheat germ agglutinin sepharose that was previously equilibrated with 50 mM Hepes, 10% glycerol, 0.1% Triton X-100 and 150 mM NaCl, pH 7.5, (equilibration buffer). Contaminating proteins were washed from the resin with 1M NaCl in equilibration buffer, and the enzyme was eluted with 0.5M N-acetyl-1-D-glucosamine in equilibration buffer.
Determination of IC50 Values
The reaction was terminated by the addition of 2 mL of 75 mM phosphoric acid and passed through a 2.5-cm phosphocellulose filter disc to bind the peptide. The filter was washed five times with 75 mM phosphoric acid and placed in a vial along with 5 mL of scintillation fluid (Ready gel Beckman).

V-src kinase = V-src kinase assay; type: biochemical; conditions: at 50 μM
Experimental: V-src and C-src Kinase Assays
V-src or C-src kinase is purified from baculovirus infected insect cell lysates using an antipeptide monoclonal antibody directed against the N-terminal 2-17 amino acids. The antibody, covalently linked to 0.65-μm latex beads, is added to a suspension of insect cell lysis buffer comprised of 150 mM NaCl, 50 mM Tris pH 7.5, 1 mM DTT, 1% NP-40, 2 mM EGTA, 1 mM sodium vanadate, 1 mM PMSF, 1 μg/mL each of leupeptin, pepstatin, and aprotinin. Insect cell lysate containing either the c-src or v-src protein is incubated with these beads for 3-4 hours at 4° C. with rotation. At the end of the lysate incubation, the beads are rinsed 3 times in lysis buffer, resuspended in lysis buffer containing 10% glycerol, and frozen. These latex beads are thawed, rinsed three times in assay buffer which is comprised of 40 mM tris pH 7.5, 5 mM MgCl2, and suspended in the same buffer. In a Millipore 96-well plate with a 0.65 μm polyvinylidine membrane bottom are added the reaction components: 10-μL v-src or c-src beads, 10 μL of 2.5 mg/mL poly GluTyr substrate, 5 μM ATP containing 0.2 μCi labeled ^32 P-ATP, 5μL DMSO containing inhibitors or as a solvent control, and buffer to make the final volume 125 μL. The reaction is started at room temperature by addition of the ATP and quenched 10 minutes later by the addition of 125 μL of 30% TCA, 0.1M sodium pyrophosphate for 5 minutes on ice. The plate is then filtered and the wells washed with two 250-μL aliquots of 15% TCA, 0.1M pyrophosphate. The filters are punched, counted in a liquid scintillation counter, and the data examined for inhibitory activity in comparison to a known inhibitor such as erbstatin. The method is described more fully in J. Med. Chem., 37:598-609 (1994).

C-src kinase = target: T4, C-src kinase (Homo sapiens, UniProt P12931); experiment: C-src kinase assay; type: biochemical; conditions: for IC50: read-out: Inhibition of Protein Tyrosine Kinases, C-src, IC50
T4 construct: made in house; host or cells: baculovirus-infected insect cells
T4 sequence (P12931 whole entry): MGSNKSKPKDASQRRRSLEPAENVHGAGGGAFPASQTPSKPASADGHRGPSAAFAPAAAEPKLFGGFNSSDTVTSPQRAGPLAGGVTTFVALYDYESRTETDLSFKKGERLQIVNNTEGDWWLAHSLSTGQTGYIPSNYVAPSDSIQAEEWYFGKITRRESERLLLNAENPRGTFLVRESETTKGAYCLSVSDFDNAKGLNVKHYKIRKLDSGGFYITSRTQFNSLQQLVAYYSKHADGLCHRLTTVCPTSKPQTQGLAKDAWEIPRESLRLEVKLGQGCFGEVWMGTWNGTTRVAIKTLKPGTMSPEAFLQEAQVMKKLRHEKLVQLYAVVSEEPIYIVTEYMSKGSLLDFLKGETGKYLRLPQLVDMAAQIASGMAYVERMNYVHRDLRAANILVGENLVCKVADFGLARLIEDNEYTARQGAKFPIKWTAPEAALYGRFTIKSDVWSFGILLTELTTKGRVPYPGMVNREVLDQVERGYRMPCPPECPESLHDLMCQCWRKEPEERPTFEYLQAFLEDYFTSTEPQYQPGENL
How it was run: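 Baculovirus-expressed c-src immunopurified on antibody-coated latex beads, assayed in 40 mM Tris pH 7.5, 5 mM MgCl2 with poly GluTyr substrate and 5 μM ATP plus 32P-ATP. Reaction 10 min at room temperature, TCA-quenched, filtered; incorporated label counted by scintillation.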

PDGF receptor = PDGF receptor autophosphorylation in RASMC; type: cell-based, rat; conditions: PDGF-BB 30 ng/mL, read-out: Inhibition of PDGF Stimulated Receptor Auto Phosphorylation (IC50)
[4] = system: Rat aorta smooth muscle cells (RASMC); experiment: [3H]-Thymidine incorporation assay in RASMC; type: cell-based; conditions: read-out: Inhibition of Growth Factor Stimulated Uptake of [3H]-thymidine (IC50)
Experimental: Cell Culture Rat aorta smooth muscle cells (RASMC) were isolated from the thoracic aorta of rats and explanted according to the method of Ross, J. Cell. Biol., 30:172-186 (1971). Cells were grown in Dulbecco's modified Eagle's medium (DMEM, Gibco) containing 10% fetal calf serum (FBS, Hyclone, Logan, Utah), 1% glutamine (Gibco) and 1% penicillin/streptomycin (Gibco). Cells were identified as smooth muscle cells by their "hill and valley" growth pattern and by fluorescent staining with a monoclonal antibody specific for SMC […] (Sigma). RASMC were used between passages 5 and 20 for all experiments. Test compounds were prepared in dimethylsulfoxide (DMSO) in order to achieve consistency in the vehicle and to ensure compound solubility. Appropriate DMSO controls were simultaneously evaluated with the test compounds. […] RASMC were plated into a 24-well plate (30,000 cells/well) in DMEM with 10% FBS. After 4 days, cells reached confluence and were made quiescent by incubation in DMEM/F12 medium (Gibco) containing 0.2% FBS for another 2 days. […] […] The acid-insoluble fraction was lysed in 0.75 mL 0.25N NaOH and the radioactivity determined by liquid scintillation counting. IC50 values were determined graphically.

| IC50 (PDGF receptor) [nM] | Structure (SMILES) | inhibition at 50 µM ([1]; at 50 μM, read-out: Inhibition of Protein Tyrosine Kinases, PDGF, % Inhibition) [%] | IC50 [2] [nM] | inhibition at 50 µM [3] [%] | Inhibition of Protein Tyrosine Kinases, V-src, % Inhibition (V-src kinase) [%] | inhibition at 50 µM (C-src kinase; at 50 μM, read-out: Inhibition of Protein Tyrosine Kinases, C-src, % Inhibition) [%] | IC50 [1] [nM] | IC50 ([3]; read-out: Inhibition of Protein Tyrosine Kinases, EGF, IC50) [nM] | IC50 (C-src kinase) [nM] | IC50 ([4]; FGF stimulated) [nM] | IC50 ([4]; PDGF stimulated) [nM] |
| --- | --- | --- | --- | --- | --- | --- | --- | --- | --- | --- | --- |
|  | CNc1ncc2cc(-c3ccccc3)c(NC)nc2n1 [Example 19, N^2,N^7 -Dimethyl-6-phenyl-pyrido[2,3-d]pyrimidine-2,7-diamine] | 47.7 | 16900 | 26.1 | 5.2 | 52.8 |  |  |  |  |  |
|  | CCCCNC(=O)Nc1ncc2cc(-c3c(Cl)cccc3Cl)c(NC(=O)NCCCC)nc2n1 [Example 25, 1-Butyl-3-[7-(3-butyl-ureido)-6-(2,6-dichlorophenyl)-pyrido[2,3-d]pyrimidin-2-yl]-urea] |  | 11800 | 57.5 | 0.0 |  | 6040 |  | 207 |  |  |
| 241 | CN1CCN(CCCNc2ncc3cc(-c4c(Cl)cccc4Cl)c(NC(=O)NC(C)(C)C)nc3n2)CC1 [Example 52, 1-tert-Butyl-3-{6-(2,6-dichlorophenyl)-2-[3-(4-methyl-piperazin-1-yl)-propylamino]-pyrido[2,3-d]pyrimidin-7-yl}-urea] |  |  |  |  |  |  |  |  | 400 | 450 |
| 296 | CCN(CC)CCCCNc1ncc2cc(-c3c(Cl)cccc3Cl)c(NC(=O)NC(C)(C)C)nc2n1 [Example 123, 1-tert-Butyl-3-[6-(2,6-dichlorophenyl)-2-(4-diethyl-amino-butylamino)-pyrido[2,3-d]pyrimidin-7-yl]-urea] |  |  |  |  |  |  |  | 29 | 320 | < 300 |
| 245 | CCNC(=O)Nc1nc2nc(NCCCCN(CC)CC)ncc2cc1-c1c(Cl)cccc1Cl [Example 124, 1-[6-(2,6-Dichlorophenyl)-2-(4-diethylamino-butyl-amino)-pyrido[2,3-d]pyrimidin-7-yl]-3-ethyl-urea] |  |  |  |  |  |  |  |  | 930 | 550 |

| Structure (SMILES) | IC50 (PDGF receptor) [nM] | inhibition at 50 µM ([1]; at 50 μM, read-out: Inhibition of Protein Tyrosine Kinases, PDGF, % Inhibition) [%] | IC50 [2] [nM] | inhibition at 50 µM [3] [%] | Inhibition of Protein Tyrosine Kinases, V-src, % Inhibition (V-src kinase) [%] | inhibition at 50 µM (C-src kinase; at 50 μM, read-out: Inhibition of Protein Tyrosine Kinases, C-src, % Inhibition) [%] | IC50 [1] [nM] | IC50 ([3]; read-out: Inhibition of Protein Tyrosine Kinases, EGF, IC50) [nM] | IC50 (C-src kinase) [nM] | IC50 ([4]; FGF stimulated) [nM] | IC50 ([4]; PDGF stimulated) [nM] |
| --- | --- | --- | --- | --- | --- | --- | --- | --- | --- | --- | --- |
| CCN(CC)CCCNc1ncc2cc(-c3c(Cl)cccc3Cl)c(NC(=O)NC(C)(C)C)nc2n1 [Example 21, 1-tert-Butyl-3-[6-(2,6-dichlorophenyl)-2-(3-diethylamino-propylamino)-pyrido[2,3-d]pyrimidin-7-yl]-urea] | 1800 |  | 82.4 |  | 49.4 |  | 660 | 6970 | 73 |  |  |
| CCNC(=O)Nc1nc2nc(N)ncc2cc1-c1c(Cl)cccc1Cl [Example 22, 1-[2-Amino-6-(2,6-dichlorophenyl)-pyrido[2,3-d]pyrimidin-7-yl]-3-ethylurea] | 3730 |  | 128 | 90.4 | 46.9 |  | 1300 |  | 77 |  |  |
